# Measured values: patent publication US20220117920A1, “N-Aryl Benzenesulfonamides as Protonophores for the Treatment of Cancers, Metabolic Diseases and Traumatic Brain Injury” (University of Kentucky Research Foundation, priority 2019, published 2022)
# Key:
# Huh7 cells [1] = experiment: Western blot of autophagy markers LC3II and p62 in Huh7 cells; assay type: cell-based, human
# Text: (§1) Primary antibodies are described in Table 1.
# AMPK = experiment: Western blot of AMPK (T172) and ACC (S79) phosphorylation in CRC cells; assay type: cell-based, human; conditions: concentration not given
# Protocol: Biochemistry. Western blotting: Cells were lysed in the appropriate volume of lysis buffer: 50 mM HEPES, 100 mM NaCl, 2 mM EDTA, 1% (v/v) glycerol, 50 mM NaF, 1 mM Na3VO4, 1% (v/v) Triton X-100, with protease inhibitors. The following antibodies were used: AMPK (Cell Signaling, 2532, Cell Signaling Technologies, Danver, Mass., USA), pAMPK (Cell Signaling, 2535), ACC (Cell Signaling, 3676), pACC (Cell Signaling, 11818), Actin (Sigma, A1978). Antibodies for Axin 2, c-Myc and Cyclin D1 have been described previously. ATP analysis: Cells growing in 12-well plates were treated with DMSO or inhibitors in DMSO solution and lysed by adding 1 mL boiling doubly distilled water. Supernatants were analyzed by luminescence using ATP Determination Kit (Invitrogen, A22066; Thermo Fisher Scientific, Waltham, Mass., USA).
# [2] = tested on: purified mitochondria from mouse liver; experiment: Uncoupling assay (OCR) using purified mitochondria from mouse livers; assay type: biochemical; conditions: 5 μM/1 μM
# Protocol: All the steps were carried out at 4° C. or on ice. After mice were euthanized with CO2 followed by rapid decapitation, whole liver was quickly dissected out on a cold block and homogenized using a Teflon-glass dounce homogenizer containing isolation buffer (215 mM mannitol, 75 mM sucrose, 0.1% BSA, 20 mM HEPES, 1 mM EGTA, adjusted to pH 7.2 with KOH). The homogenate was transferred to a 2 mL-microcentrifuge tube and spun at 1,300×g for 3 min. The supernatant was transferred to a fresh 2 mL-microcentrifuge tube and spun at 13,000×g for 10 min. The supernatant was discarded, and the crude mitochondrial pellet was resuspended in a 1.5 mL-microcentrifuge tubes and pelleted again at 10,000×g for 10 min. The supernatant was discarded, and the mitochondrial pellets were resuspended in isolation buffer to obtain an approximate concentration ≥10 mg/mL of mitochondria. The absolute protein concentration was determined using a bicinchoninic acid (BCA) protein assay kit (Pierce, Cat #23,227) by recording absorbance at 560 nm on a Biotek Synergy HT plate reader (Winooski, Vt., USA).
# Mitochondrial Bioenergetics Measurements. Mitochondrial bioenergetic measurements were carried out using a Seahorse XFe96 Extracellular Flux Analyzer (Agilent Technologies, Santa Clara, Calif., USA) to measure oxygen consumption rate (OCR) during various states of respiration. The OCR were measured in the presence of different substrates, inhibitors and uncouplers of the electron transport chain using previous methods with slight modifications. The stocks used for the assays were 500 mM pyruvate, 250 mM malate, and 30 mM adenosine diphosphate (ADP), and 1 M succinate (pH for all was adjusted to 7.2). […] Stock solutions of FH535, Y3, FH535-M, and Y3-M were prepared at 5 mM in 100% DMSO. As per the instructions from XFe96 Extracellular Flux kit, the sensor cartridge was hydrated with water and kept at 37° C. overnight before the experiment. One hour before the assay was conducted, water was removed from assay plates and XF calibrant was added before re-incubation. The injection ports A to D of the sensor cartridge were loaded with 25 μL of different combinations of the above substrates/inhibitors/uncouplers as follows. Before loading, the stocks were diluted appropriately in the respiration buffer (RB) (125 mM KCl, 0.1% BSA, 20 mM HEPES, 2 mM MgCl2, and 2.5 mM KH2PO4; pH 7.2) to get the final concentrations in the respiration chamber of 5 μM pyruvate, 2.5 μM malate, 10 μM of succinate and 1 μM ADP (via Port A), 1 μM oligomycin A (via Port B), 4 μM FCCP or 5 μM/1 μM FH535 or 5 μM/1 μM Y3 or 5 μM/1 μM FH535-M or 5 μM/1 μM Y3-M (via Port C) and 0.1 μM antimycin A (via Port D) starting with the initial volume of 175 μL RB in the chamber and diluting it to 9×, 10×, 11× and 12× with every injection through ports A to D, respectively. Once loaded, the sensor cartridge was placed into the Seahorse XFe96 Flux Analyzer for automated calibration. Seahorse Standard XFe96 assay plates were used for loading mitochondria. Initially total mitochondria were diluted to 6 μg/30 μL in RB and 30 μL was loaded in each well resulting in 6 μg mitochondria/well. The assay plates were centrifuged at 3,000 rpm for 4 min at 4° C. to adhere liver mitochondria at the bottom of the wells. After centrifugation, 145 μL RB (pre-incubated to 37° C.) was added without disturbing the mitochondrial layer to obtain a final volume of 175 μL per well. […]
# Hep3B cells = experiment: [3H]-thymidine incorporation assay, Hep3B; assay type: cell-based, human; conditions: 72 h
# Protocol: (§2) Huh7, PLC/PRF/5 and Hep3B cells were plated in 96-well plates at 3000-4000 cells/well, treated with the concentrations indicated of FH535 or FH535-N, as single agents or in combination with sorafenib, and cultured for 72 h. ^3H-thymidine incorporation assay was performed as described previously.
# Huh7 cells [3] = experiment: Annexin V/PI apoptosis assay, Huh7; assay type: cell-based, human; conditions: Huh7, 48 h
# Protocol: (§3) Apoptosis assay was performed in Huh7 and PLC/PRF/5 cells treated 48 h with DMSO vehicle control or the indicated doses of FH535, FH535-N alone or in combination with sorafenib. Cells were harvested and stained with the APC Annexin V apoptosis detection kit with PI (BioLegend, USA) according to the manufacturing instructions followed by flow cytometry analysis. Flow cytometry data was acquired with an LSRII instrument (BD-Biosciences) and analyzed with FlowJo software (Tree Star).
# PLC/PRF/5 cells [4] = experiment: [3H]-thymidine incorporation assay, PLC/PRF/5; assay type: cell-based, human; conditions: PLC/PRF/5, 72 h
# Protocol: as §2
# PLC/PRF/5 cells [5] = experiment: Annexin V/PI apoptosis assay, PLC/PRF/5; assay type: cell-based, human; conditions: PLC/PRF/5, 48 h
# Protocol: as §3
# Wnt/β-catenin pathway = experiment: TOP-Flash TCF4-dependent dual luciferase reporter assay in Huh7 cells; assay type: cell-based, human; conditions: Huh7, 10 mM LiCl
# Protocol: Cells were plated at 1×10^5 cells/well in 24-well plates and transiently transfected with 490 ng of luciferase-reporter plasmid and 10 ng of phRL-TK per well using the Turbofect transfection reagent (Thermo Scientific, USA). After 5-6 h post-transfection, cells were treated with drug(s) or DMSO vehicle control for 36 h in the presence or absence of LiCl (10 mM). Luciferase assays were performed using the Dual Luciferase Assay System (Promega, USA) according to manufacturer's instructions.
# Huh7 cells [6] = experiment: Cyto-ID autophagy detection assay in Huh7 cells; assay type: cell-based, human; conditions: Huh7, 40 h, ±50 μM CQ
# Protocol: Autophagy responses were monitored with the Cyto-ID autophagy detection reagent 2.0 (Enzo Life Sciences, USA) according to the manufacturer's instructions. Huh7 and PLC/PRF/5 cells were seeded in 12-well plates and treated the following day with drugs or DMSO vehicle control at the indicated concentrations. CQ was added to the corresponding wells to a final concentration of 50 μM 8 h prior harvesting. After 40 h of drug treatment, cells were collected and assessed for viability with Zombie Violet dye solution (BioLegend, USA) followed by Cyto-ID autophagy detection reagent staining. Flow cytometry analyses were performed in a BD LSRII at the Flow Cytometry and Cell Sorting Shared Resource Facility of the University of Kentucky Markey Cancer Center and data were analyzed with the FlowJo Software version 7.6.5 (Tree Star, USA). The autophagic flux was quantified by subtracting the Cyto-ID MFI value of the sample without CQ from the Cyto-ID MFI value of the sample with CQ for each condition according to the formula: […]
# Huh7 cells [7] = experiment: Seahorse mitochondrial stress test (OCR) in Huh7 cells; assay type: cell-based, human; conditions: Huh7, 24 h
# Protocol: Oxygen Consumption Rates (OCR) were measured on an XF-96 Extracellular Flux Analyzer (Seahorse Bioscience) using the protocol and conditions optimized for HCC cells as previously described by our group. Briefly, the experiments were performed by seeding 10,000 and 20,000 Huh7 cells per well in XFe 96 well-plates 36 h before the experiment. Cells were treated for 24 h with FH535, FH535-N or vehicle control. In OCR experiments the media was supplemented with 25 mM Glucose and 1 mM Pyruvate just before the assay. After minimal incubation time (˜20-30 min in non-CO2 37° C. incubator) mitochondrial stress test was initiated. […] All reagents used in the Seahorse experiments were purchased from Sigma-Aldrich. Analyses of data were performed with Wave 2.2 software (Seahorse Bioscience), Excel (Microsoft Office 2013) and Prism 7.0 (GraphPad Software).
# [8] = tested on: Wnt/β-catenin target genes; experiment: Expression of downstream β-catenin targets in Huh7 cells (western blot, RT-qPCR); assay type: cell-based, human; conditions: Huh7, 36 h
# Protocol: as §1
# Total RNA was extracted with miRNeasy mini kit (Qiagen, Germany), and the corresponding cDNA was produced using iScript cDNA synthesis kit (BioRad, USA) from 1 μg of total RNA. Real time quantitative PCR (RT-qPCR) was performed using SsoAdvanced Universal SYBR Green supermix (BioRad, USA) with specific primers: p62 (SQSTM1: 5′-[…]-3′ (SEQ ID NO: 1) and 5′-[…]-3′ (SEQ ID NO: 2)); c-MYC (cMYC: 5′-[…]-3′ (SEQ ID NO: 3) and 5′-[…]-3′ (SEQ ID NO: 4)), Survivin (BIRC5, 5′-[…]-3′ (SEQ ID NO: 5) and 5′-[…]-3′ (SEQ ID NO: 6)), AXIN 2 (AXIN2: 5′-[…]-3′ (SEQ ID NO: 7) and 5′-[…]-3′ (SEQ ID NO: 8)), Cyclin D1 (5′-CCND1: […]-3′ (SEQ ID NO: 9) and 5′-[…]-3′ (SEQ ID NO: 10)), and b2-microglobulin (B2M: 5′-[…]-3′ (SEQ ID NO: 11) and 5′-[…]-3′ (SEQ ID NO: 12)). Transcript levels were normalized to β-actin or […] level as indicated using the ΔΔCt method.
# Wnt signaling = experiment: Wnt reporter assay, stable HEK293T cell line containing TOPFlash reporter, LiCl-activated; assay type: cell-based, human; conditions: concentration not given
# Text: To identify novel Wnt regulators by high throughput screening, a stable HEK293T cell line containing the TOPFlash reporter was established. To identify Wnt inhibitors that targeted molecular events downstream of β-catenin, we treated these cells with lithium chloride to inhibit GSK3 and to stabilize β-catenin. […] We also validated the results by transient transfection of Super 8× TOPFlash or 8× FOPFlash into HEK293T cells. […] Since the results from the stable and transient transfection are compatible, we used stable cell lines for all of the other experiments.
# Reporter assay. Wnt reporter assay and cell staining assay have been described previously. We subcloned Super 8×TOPFlash (provided by Professor Randall Moon, University of Washington) into the pGL4.83 [hRlucP/Puro] Vector and transfected it into HEK293T cells. A stable HEK293T cell line containing the TOPFlash reporter was established using puromycin selection. To screen Wnt inhibitors that block the downstream signaling transduction pathway of β-catenin, we treated the reporter cells with 25 mM LiCl to stabilize β-catenin and activate Wnt signaling. The potential Wnt inhibitors identified from screening were validated by transfecting TOPFlash or FOPFlash plus control renilla reporters into HEK293T cells, and then treating the cells with DMSO or testing compounds in DMSO solution. The Wnt signaling was activated by LiCl or Wnt3A treatment.
# Huh7 cells [9] = experiment: [3H]-thymidine incorporation assay, Huh7; assay type: cell-based, human; conditions: Huh7, 72 h
# Protocol: as §2
structure (smiles),measurement,setting,value
"O=[N+]([O-])c1ccc(NS(=O)(=O)c2cc(Cl)ccc2Cl)c2ccccc12 [Y3, 2,5-dichloro-N-(4-nitronaphthalen-1-yl)benzenesulfonamide]","accumulation of LC3II in the presence of CQ (autophagic flux, ΔLC3II)","Huh7 cells [1]; Huh7, 50 μM CQ 8 h",reduced at higher doses
same,LC3II protein levels,"Huh7 cells [1]; Huh7, 40 h",increased
same,p62 protein levels,"Huh7 cells [1]; Huh7, 40 h",increased
same,AMPK activation,AMPK,strongly activated AMPK
same,uncoupling: OCR blocked by oligomycin,[2],increased OCR in dose-dependent manner
same,cell proliferation (3H-thymidine incorporation),Hep3B cells,inhibited cell proliferation
same,apoptosis (Annexin V/PI),Huh7 cells [3],significant increased rate of apoptosis
same,cell proliferation (3H-thymidine incorporation),PLC/PRF/5 cells [4],inhibited cell proliferation
same,apoptosis (Annexin V/PI),PLC/PRF/5 cells [5],significant increased rate of apoptosis
same,Wnt/β-catenin transcriptional activity (TOP-Flash),Wnt/β-catenin pathway,reduced the Wnt/β-catenin transcriptional activity
same,autophagic flux (Cyto-ID),Huh7 cells [6],reduction in the autophagic flux
same,Proton Leak,Huh7 cells [7],enhanced Proton Leak
same,expression of downstream Wnt/β-catenin target genes,[8],reduced
same,inhibition of Wnt signaling,Wnt signaling,inhibited Wnt signaling
same,cell proliferation (3H-thymidine incorporation),Huh7 cells [9],inhibited cell proliferation
